Results: the NIST ThermoML archive (doi:10.1021/acs.jced.5b00152)
± gives the expanded uncertainty stated by the source.

Conditions: Liquid; for viscosity: Capillary tube (Ostwald / Ubbelohde) method; for mass density: Vibrating tube method

CCO [ethanol]
viscosity (298.15 K, 1022 kPa): 1.086 ± 0.0097 mPa·s
mass density (298.15 K, 1022 kPa): 785.87 ± 0.56 kg/m3
viscosity (298.15 K, 3922 kPa): 1.112 ± 0.01 mPa·s
mass density (298.15 K, 3922 kPa): 788.69 ± 0.57 kg/m3
viscosity (298.15 K, 8793 kPa): 1.148 ± 0.01 mPa·s
mass density (298.15 K, 8793 kPa): 792.53 ± 0.58 kg/m3
viscosity (298.15 K, 12491 kPa): 1.175 ± 0.01 mPa·s
mass density (298.15 K, 12491 kPa): 795.7 ± 0.59 kg/m3
viscosity (298.15 K, 17711 kPa): 1.213 ± 0.011 mPa·s
mass density (298.15 K, 17711 kPa): 799.91 ± 0.6 kg/m3
viscosity (298.15 K, 21982 kPa): 1.244 ± 0.011 mPa·s
mass density (298.15 K, 21982 kPa): 802.87 ± 0.62 kg/m3
viscosity (298.15 K, 24097 kPa): 1.26 ± 0.011 mPa·s
mass density (298.15 K, 24097 kPa): 804.5 ± 0.62 kg/m3
viscosity (298.15 K, 26940 kPa): 1.28 ± 0.011 mPa·s
mass density (298.15 K, 26940 kPa): 806.36 ± 0.63 kg/m3
viscosity (298.15 K, 29139 kPa): 1.296 ± 0.011 mPa·s
mass density (298.15 K, 29139 kPa): 807.89 ± 0.64 kg/m3
viscosity (323.15 K, 3237 kPa): 0.711 ± 0.0065 mPa·s
mass density (323.15 K, 3237 kPa): 766.361 ± 0.55 kg/m3
viscosity (323.15 K, 9248 kPa): 0.7435 ± 0.0068 mPa·s
mass density (323.15 K, 9248 kPa): 772.358 ± 0.57 kg/m3
viscosity (323.15 K, 12839 kPa): 0.7616 ± 0.007 mPa·s
mass density (323.15 K, 12839 kPa): 775.758 ± 0.58 kg/m3
viscosity (323.15 K, 18790 kPa): 0.7928 ± 0.0072 mPa·s
mass density (323.15 K, 18790 kPa): 780.78 ± 0.6 kg/m3
viscosity (323.15 K, 23256 kPa): 0.8153 ± 0.0074 mPa·s
mass density (323.15 K, 23256 kPa): 784.532 ± 0.62 kg/m3
viscosity (323.15 K, 25042 kPa): 0.8236 ± 0.0075 mPa·s
mass density (323.15 K, 25042 kPa): 786.147 ± 0.62 kg/m3
viscosity (323.15 K, 27936 kPa): 0.8367 ± 0.0076 mPa·s
mass density (323.15 K, 27936 kPa): 788.458 ± 0.64 kg/m3
viscosity (323.16 K, 626 kPa): 0.6978 ± 0.0064 mPa·s
mass density (323.16 K, 626 kPa): 763.659 ± 0.55 kg/m3
viscosity (323.16 K, 15104 kPa): 0.7732 ± 0.0071 mPa·s
mass density (323.16 K, 15104 kPa): 777.664 ± 0.59 kg/m3
viscosity (333.27 K, 16623 kPa): 0.6592 ± 0.0061 mPa·s
mass density (333.27 K, 16623 kPa): 770.196 ± 0.59 kg/m3
viscosity (333.28 K, 909 kPa): 0.5872 ± 0.0055 mPa·s
mass density (333.28 K, 909 kPa): 754.25 ± 0.54 kg/m3
viscosity (333.28 K, 1891 kPa): 0.5916 ± 0.0055 mPa·s
mass density (333.28 K, 1891 kPa): 756.361 ± 0.55 kg/m3
viscosity (333.28 K, 5093 kPa): 0.6065 ± 0.0057 mPa·s
mass density (333.28 K, 5093 kPa): 758.805 ± 0.56 kg/m3
viscosity (333.28 K, 9067 kPa): 0.6251 ± 0.0058 mPa·s
mass density (333.28 K, 9067 kPa): 762.841 ± 0.57 kg/m3
viscosity (333.28 K, 12887 kPa): 0.6421 ± 0.0059 mPa·s
mass density (333.28 K, 12887 kPa): 766.568 ± 0.58 kg/m3
viscosity (333.28 K, 22108 kPa): 0.684 ± 0.0063 mPa·s
mass density (333.28 K, 22108 kPa): 775.145 ± 0.61 kg/m3
viscosity (333.28 K, 25690 kPa): 0.6985 ± 0.0064 mPa·s
mass density (333.28 K, 25690 kPa): 777.944 ± 0.63 kg/m3
viscosity (333.28 K, 29272 kPa): 0.7133 ± 0.0066 mPa·s
mass density (333.28 K, 29272 kPa): 780.933 ± 0.64 kg/m3
